In patent US8158621B2, “Methods of treating or preventing autoimmune diseases with 2,4-pyrimidinediamine compounds” (Rigel Pharmaceuticals, Inc., priority 2002, dated 2012):
Read-outs that look alike come from different tables or passages of the source.

System: Human Jurkat T-cells (clone N)
Assay: Jurkat T-cell activation (anti-TCR, CD69 upregulation)
Type: cell-based
Summary of the method: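 Readout is CD69 upregulation by flow cytometry (anti-CD69-APC, 20 min at 4 °C) after 20 h anti-TCR (C305, 500 ng/ml) stimulation at 37 °C.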

IC50 (Homo sapiens, Jurkat) [µM] | IC50 [µM] | Compound
– | 9.28 | CNC(=O)COc1cccc(Nc2ncc(F)c(Nc3ccc(OC)c(C(=O)OC)c3)n2)c1 [Compound R940300]
– | > 10 | CSc1nc2ccc(Nc3ncc(F)c(Nc4ccc5nc(SC)sc5c4)n3)cc2s1 [Compound R950202]
> 10 | – | Oc1cccc(Nc2nc(NCc3cccnc3)ncc2F)c1 [Compound R945165]
– | 13.9 | Nc1ccc(Nc2ncc(F)c(Nc3ccc(N)cc3)n2)cc1 [Compound R950122]
– | > 10 | N#CCOc1ccc(Nc2ncc(F)c(Nc3cccc(O)c3)n2)cc1 [Compound R945070]
– | > 10 | Cn1nc(I)c2cc(Nc3ncc(F)c(Nc4ccc(I)c(O)c4I)n3)ccc21 [Compound R935221]
12.8 | – | Nc1cccc(Nc2ccnc(Nc3cccc(N)c3)n2)c1 [Compound R950109]
– | > 10 | CNC(=O)Cn1ncc2ccc(Nc3nc(Nc4ccc(OC(C)C)cc4)ncc3F)cc21 [Compound R935224]
– | 3.13 | N#CCOc1ccc(Nc2nc(Nc3ccc4c(c3)OCCO4)ncc2F)cc1 [Compound R945172]
– | 2.54 | COC(=O)c1ccc(Cn2cc3ccc(Nc4ncc(F)c(Nc5cccc(O)c5)n4)cc3n2)c(OC)c1 [Compound R935337]
0.838 | – | O=C1CCNC2=COc3ccc(Nc4nc(Nc5cccc(O)c5)ncc4F)cc3N12 [Compound R945237]
– | 7.06 | COC(=O)Cn1ncc2cc(Nc3ncc(F)c(Nc4ccc5c(cnn5CC(=O)OC)c4)n3)ccc21 [Compound R935211]
– | 6.16 | COC(=O)COc1cccc(Nc2ncc(F)c(Nc3ccc4c(c3)OCCO4)n2)c1 [Compound R945124]
– | 1.23 | CC(C)(C)c1cccc(Nc2nc(Nc3cccc(OCC(=O)NC(CO)CO)c3)ncc2F)c1 [Compound R940296]
– | 2.8 | CON=C(N)COc1ccc(Nc2ncc(F)c(Nc3ccc(OCC(N)=NOC)cc3)n2)cc1 [Compound R945096]
– | 2.38 | Oc1cccc(Nc2nc(Nc3ccc(OCC4=NCCCN4)cc3)ncc2F)c1 [Compound R945169]
– | 3.28 | CNCc1cccc(Nc2nc(Nc3cccc(OCC(=O)NC)c3)ncc2F)c1 [Compound R940317]
– | > 10 | COc1cc(C(=O)NS(=O)(=O)c2ccccc2C)ccc1Cn1ncc2ccc(Nc3ncc(F)c(Nc4ccc5c(c4)OCCO5)n3)cc21 [Compound R935323]
– | 4.5 | CSc1nc2ccc(Nc3ncc(F)c(Nc4ccc5c(c4)OCCO5)n3)cc2s1 [Compound R950201]
– | 22 | CNc1ncc(F)c(Nc2ccc3c(c2)OCCO3)n1 [Compound R950189]
– | 2.92 | O=C(CNc1cccc(Nc2ncc(F)c(Nc3cccc(O)c3)n2)c1)NCCN1CCOCC1 [Compound R950226]
– | 0.224 | CNC(=O)COc1cccc(Nc2ncc(F)c(Nc3ccc4c(c3)C(=NO)CCO4)n2)c1 [Compound R950348]
– | 1.9 | OCCn1ncc2ccc(Nc3ncc(F)c(Nc4ccc5c(c4)OCCO5)n3)cc21 [Compound R935248]

The remaining lines, values behind:

Compound | IC50 (Homo sapiens, Jurkat) [µM] | IC50 [µM]
Fc1cnc(Nc2cccc(Cl)c2)nc1Nc1cccc(Cl)c1 [Compound R926209] | > 10 | –
CNC(=O)COc1cccc(Nc2ncc(F)c(Nc3ccc(C)c(C(F)(F)F)c3)n2)c1 [Compound R926922] | – | 6.12
C=CCNC(=O)Nc1c(Nc2ccc(OCC(=O)OCC)cc2)nc(Nc2ccc(OCC(=O)OCC)cc2)nc1C(=O)OCC [Compound R926585] | – | > 10
Brc1cnc(Nc2cccc(-c3ccccc3)c2)nc1Nc1cccc(-c2ccccc2)c1 [Compound R925803] | > 10 | –
CNC(=O)COc1cccc(Nc2ncc(F)c(Nc3ccc4ncccc4c3)n2)c1 [Compound R926883] | – | > 10
CNC(=O)COc1cccc(Nc2ncc(F)c(Nc3ccc4c(c3)N(C)C(=O)CO4)n2)c1 [Compound R909260] | – | 3.33
O=C(COc1cccc(Nc2ncc(F)c(Nc3cccc(O)c3)n2)c1)N1CCNCC1 [Compound R926772] | – | 2.04
Fc1cnc(Nc2ccc3c(c2)OCO3)nc1Nc1ccc2c(c1)OCO2 [Compound R925776] | 17.1 | –
CCOC(=O)C1CCN(Cc2cccc(Nc3nc(Nc4cccc(OCC(=O)NC)c4)ncc3F)c2)CC1 [Compound R926905] | – | 6.49
c1coc(-c2cnc(Nc3ccc4c(c3)OCCO4)nc2Nc2ccc3c(c2)OCCO3)c1 [Compound R925785] | 3.12 | –
CNC(=O)C(C)(C)Oc1cccc(Nc2ncc(F)c(Nc3cccc(O)c3)n2)c1 [Compound R926913] | – | 5.65
Fc1cnc(Nc2cccc(OCc3ccccc3)c2)nc1Nc1cccc(OCc2ccccc2)c1 [Compound R926394] | > 10 | –
CCOC(=O)c1cnc(Nc2cccc(OCC(=O)NC)c2)nc1Nc1ccc2c(c1)OCCO2 [Compound R926800] | – | > 10
CN(CCO)C(=O)COc1cccc(Nc2ncc(F)c(Nc3ccc4c(c3)OCCO4)n2)c1 [Compound R926766] | – | 4.24
CNC(=O)COc1cc(Nc2ncc(F)c(Nc3ccc(C)c(O)c3)n2)ccc1C [Compound R926759] | – | 1.71
COc1ccc(Nc2ncc(F)c(Nc3ccc4c(c3)OCCO4)n2)cc1OC [Compound R926212] | 0.56 | –
CCOC(=O)CNc1nc(Nc2ccc(OCC(=O)OCC)cc2)nc(C(=O)OCC)c1[N+](=O)[O-] [Compound R925858] | – | > 10

Compound | IC50 (Homo sapiens, Jurkat) [µM] | IC50 [µM]
CC(C)(C)OC(=O)COc1ccc(Nc2nc(Cl)c(Cl)c(Nc3ccc(OCC(=O)OC(C)(C)C)cc3)n2)cc1 [Compound R926576] | – | > 10
COc1ccc(-c2ccccc2)cc1Nc1ccnc(Nc2cc(-c3ccccc3)ccc2OC)n1 [Compound R925805] | > 10 | –
O=C(COc1cccc(Nc2ncc(F)c(Nc3ccc4c(c3)OCCO4)n2)c1)NC1CCCCC1 [Compound R926765] | – | 8
Oc1ccc(Nc2ncc(F)c(Nc3ccc(O)c(F)c3)n2)cc1F [Compound R926681] | 2 | –
CNC(=O)COc1cccc(Nc2ncc(F)c(Nc3ccc4c(c3)OCCO4)n2)c1 [Compound R926816] | – | 0.739
Cc1cnc(Nc2ccc(OCc3nnn(C)n3)cc2)nc1Nc1cccc(O)c1 [Compound R920893] | – | 1.4
O=C(COc1cccc(Nc2ncc(F)c(Nc3cccc(O)c3)n2)c1)N1CCNCC1 [Compound R926773] | – | 1.84
OCC(O)COc1ccc(Nc2ncc(F)c(Nc3cccc(O)c3)n2)cc1 (stereo not drawn) [Compound R935180] | 3.57 | –
N#Cc1cnc(Nc2ccc(OCC(=O)N3CCCCC3)cc2)nc1Nc1ccc(OCC(=O)N2CCCCC2)cc1 [Compound R925855] | – | > 10
Fc1cnc(Nc2ccc3[nH]ncc3c2)nc1Nc1ccc2c(c1)OCCO2 [Compound R935198] | – | 1.45
O=C(COc1cccc(Nc2ncc(F)c(Nc3ccc4c(c3)NCCO4)n2)c1)NCCCO [Compound R909252] | – | 0.655
CCOC(=O)c1cccc(Nc2ncc(F)c(Nc3cccc(C(=O)OCC)c3)n2)c1 [Compound R926228] | > 10 | –
OC(CNc1ncc(F)c(NCC(O)c2ccccc2)n1)c1ccccc1 (stereo not drawn) [Compound R925768] | > 10 | –
Oc1cccc(Nc2ncc(-c3ccc4c(c3)OCO4)c(Nc3cccc(O)c3)n2)c1 [Compound R925788] | 16.9 | –
COc1ccc(Nc2ncc(F)c(Nc3ccc(OC)c(O)c3)n2)cc1O [Compound R926339] | 2.15 | –
CNC(=O)COc1cccc(Nc2nc(Nc3cc(OC)cc(OC)c3)ncc2F)c1 [Compound R926810] | – | 5.07
CC(C)(CO)c1ccc(Nc2nc(Nc3ccc(OCCO)cc3)ncc2F)cc1 [Compound R935158] | 2.47 | –
